Test results: patent publication US11236047B2 (ASTEX THERAPEUTICS LIMITED, priority 2017, dated 2022)
Read-outs that look alike come from different tables or passages of the source.

Assays:
MDM2-p53 interaction = MDM2-p53 interaction (Homo sapiens (Human), UniProt Q00987); conditions: for inhibition at 0.03 µM: read-out: MDM2 % inhibition @0.030; for inhibition at 0.001 µM: read-out: MDM2 % inhibition @0.0010; for inhibition at 0.1 µM: read-out: MDM2 % inhibition @0.10
Experimental: MDM2-053 Interaction Using a 96-Well Plate Binding Assay (ELISA)
The ELISA assay was performed in streptavidin coated plates which were preincubated with 200 μl per well of 1 μg ml^−1 biotinylated IP3 peptide. The plates were ready to use for MDM2 binding after washing the plate with PBS.
The bound HRP activity was measured by enhanced chemiluminesence (ECL™, Amersham Biosciences) using the oxidation of the diacylhydrazide substrate, luminol, to generate a quantifiable light signal. The percentage of MDM2 inhibition at a given concentration is calculated as the [1−(RLU detected in the compound treated sample−RLU negative DMSO control)÷(RLU of DMSO positive and negative controls)]×100 or as the (RLU detected in the compound treated sample÷RLU of DMSO controls)×100. The IC50 was calculated using a plot of % MDM2 inhibition vs concentration and is the average of two or three independent experiments.

SJSA-1 cells = experiment: Protocol B: SJSA-1 CellTiter-Glo luminescent cell viability assay; conditions: for inhibition at 10 µM: Homo sapiens, SJSA-1, read-out: SJSA1 % inhibition at 10
SN40R2 cells = experiment: Protocol B: SN40R2 CellTiter-Glo luminescent cell viability assay; conditions: read-out: SN40R2 % inhibition at 10
Experimental: Protocol B: SJSA-1 and SN40R2 Assays
The CellTiter-Glo® Luminescent Cell Viability Assay is a homogeneous method to determine the number of viable cells in culture based on quantitation of the ATP present, which signals the presence of metabolically active cells. […] 100 μl of CTG reagent (Promega #G7573) was added to all wells and luminescence was measured on the topcount. The EC50 values were determined from a sigmoidal 4 parameter curve fit using XLfit in conjunction with Activity Base (IDBS; Guildford, Surrey, UK).

[1] = read-out: SJSA1 IC50, Protocol B, SJSA-1
[2] = read-out: SJSA1 IC50 (μM) (Protocol B), SJSA-1, Protocol B

Chain of MDM2-p53 interaction (Q00987 whole entry): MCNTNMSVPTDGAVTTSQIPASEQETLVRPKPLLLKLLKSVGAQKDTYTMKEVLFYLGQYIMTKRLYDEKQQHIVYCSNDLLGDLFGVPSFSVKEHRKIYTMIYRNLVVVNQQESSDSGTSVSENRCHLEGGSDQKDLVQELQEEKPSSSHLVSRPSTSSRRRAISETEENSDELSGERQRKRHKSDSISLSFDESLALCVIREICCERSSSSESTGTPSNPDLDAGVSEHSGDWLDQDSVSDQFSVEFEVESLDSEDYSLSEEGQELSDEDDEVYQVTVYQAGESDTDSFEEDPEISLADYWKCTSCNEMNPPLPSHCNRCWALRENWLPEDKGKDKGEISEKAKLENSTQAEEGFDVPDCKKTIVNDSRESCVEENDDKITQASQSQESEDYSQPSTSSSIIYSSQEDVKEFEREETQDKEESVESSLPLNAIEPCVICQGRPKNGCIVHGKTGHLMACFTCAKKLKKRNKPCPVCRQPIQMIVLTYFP

Work on CCC(O)(c1cc(F)c2c(c1)C(=O)N(Cc1ccc(C#N)cn1)[C@@]2(OC1CC(O)C1)c1ccc(Cl)cc1)[C@H]1CC[C@H](O)CC1 (stereo partly drawn) [Example 520, 6-{[(1R)-1-(4-chlorophenyl)-7-fluoro-5-{1-hydroxy-1-[trans-4-hydroxycyclohexyl]propyl}-3-oxo-1-[cis-3-hydroxycyclobutoxy]-2,3-dihydro-1H-isoindol-2-yl]methyl}pyridine-3-carbonitrile] yielded an inhibition at 0.03 µM (MDM2-p53 interaction) of 32% and an IC50 (SJSA-1 cells; [1]) of 3.9 µM.

With CCC(O)(c1cc(F)c2c(c1)C(=O)N(Cc1ccc(C#N)cn1)[C@@]2(OC[C@@H](C)O)c1ccc(Cl)cc1)C1(F)CCOCC1 (single isomer, unassigned) [Example 497] the inhibition at 0.001 µM (MDM2-p53 interaction) was 83%.

For CCC(O)(c1cc(F)c2c(c1)C(=O)N(Cc1ccc(C#N)cn1)[C@@]2(OC[C@@H](C)O)c1ccc(Cl)cc1)C1(F)CCOCC1 (stereo partly drawn) [Example 498, 6-{[(1R)-1-(4-chlorophenyl)-7-fluoro-5-[1-(4-fluorooxan-4-yl)-1-hydroxypropyl]-1-[(2R)-2-hydroxypropoxy]-3-oxo-2,3-dihydro-1H-isoindol-2-yl]methyl}pyridine-3-carbonitrile], the inhibition at 0.1 µM (MDM2-p53 interaction) was 32% and the inhibition at 10 µM (SJSA-1 cells) was 96%.

CCC(O)(c1cc(F)c2c(c1)C(=O)N(Cc1ccc(C#N)cn1)[C@@]2(O[C@H]1CCOC1)c1ccc(Cl)cc1)c1cnn(C)c1 (single isomer, unassigned) [Example 358] was tested, and the “MDM2 % at stated concentration” value (MDM2-p53 interaction) was 74%@0.0010 and the IC50 (SJSA-1 cells; [2]) was 0.039 µM.

CCC(O)(c1cc(F)c2c(c1)C(=O)N(Cc1ccc(C#N)cn1)[C@@]2(O[C@H]1CCOC1)c1ccc(Cl)cc1)c1cnn(C)c1 (single isomer, unassigned) [Example 359] was tested, and the “MDM2 % at stated concentration” value (MDM2-p53 interaction; at 0.10 μM) was 50%@0.10 and the IC50 (SJSA-1 cells; [2]) was 3.9 µM.

With Cn1cc(C(C)(O)c2cc(F)c3c(c2)C(=O)N(Cc2ncc(F)cc2F)[C@@]3(OCC2(O)CC2)c2ccc(Cl)cc2)cn1 (single isomer, unassigned) [Example 351] the “MDM2 % at stated concentration” value (MDM2-p53 interaction; at 0.10 μM) was 25%@0.10 and the IC50 (SJSA-1 cells; [2]) was 4.3 µM.

In the case of CO[C@]1(c2ccc(Cl)cc2)c2ccc(C(C)(O)C(=O)NCCN(C)C)cc2C(=O)N1Cc1ccc(Cl)cn1 (single isomer, unassigned) [Example 149], the “MDM2 % at stated concentration” value (MDM2-p53 interaction; at 1.0 μM) is reported as 53%@1.0.

In the case of CCC(O)(c1cc(F)c2c(c1)C(=O)N(Cc1ncc(Cl)cc1O)[C@@]2(O[C@H]1C[C@@H](O)C1)c1ccc(Cl)cc1)c1cn(C)cn1 (stereo partly drawn) [Example 488, (3R)-2-[(5-chloro-3-hydroxypyridin-2-yl)methyl]-3-(4-chlorophenyl)-4-fluoro-6-[1-hydroxy-1-(1-methyl-1H-imidazol-4-yl)propyl]-3-[cis-3-hydroxycyclobutoxy]-2,3-dihydro-1H-isoindol-1-one], the inhibition at 0.1 µM (MDM2-p53 interaction) is reported as 56%.

Work on CCC(O)(c1cc(F)c2c(c1)C(=O)N(Cc1ccc(C#N)cn1)[C@@]2(OCCO)c1ccc(Cl)cc1)C1(F)CCOCC1 (stereo partly drawn) [Example 500, 6-{[(1R)-1-(4-chlorophenyl)-7-fluoro-5-[1-(4-fluorooxan-4-yl)-1-hydroxypropyl]-1-(2-hydroxyethoxy)-3-oxo-2,3-dihydro-1H-isoindol-2-yl]methyl}pyridine-3-carbonitrile] yielded an inhibition at 0.1 µM (MDM2-p53 interaction) of 21% and an inhibition at 10 µM (SJSA-1 cells) of 16%.

With COc1ccc(CN2C(=O)c3cc(C(C)(O)c4cnn(C)c4)cc(F)c3[C@]2(OCC2(O)CC2)c2ccc(Cl)cc2)nc1 (stereo partly drawn) [Example 347, (3R)-3-(4-chlorophenyl)-4-fluoro-6-[1-hydroxy-1-(1-methyl-1H-pyrazol-4-yl)ethyl]-3-[(1-hydroxycyclopropyl)methoxy]-2-[(5-methoxypyridin-2-yl)methyl]-2,3-dihydro-1H-isoindol-1-one] the “MDM2 % at stated concentration” value (MDM2-p53 interaction; at 0.10 μM) was 63%@0.10 and the IC50 (SJSA-1 cells; [2]) was 1.7 µM.

For CCC(O)(c1cc(F)c2c(c1)C(=O)N(Cc1ccc(C#N)cn1)[C@@]2(OCCO)c1ccc(Cl)cc1)C1(F)CCOCC1 (single isomer, unassigned) [Example 499], the inhibition at 0.001 µM (MDM2-p53 interaction) was 68%.

CCC(O)(c1cc(F)c2c(c1)C(=O)N(Cc1ccc(C#N)cn1)[C@@]2(OCCOC)c1ccc(Cl)cc1)c1cn(C)cn1 (stereo partly drawn) [Example 429, 6-{[(1R)-1-(4-chlorophenyl)-7-fluoro-5-[1-hydroxy-1-(1-methyl-1H-imidazol-4-yl)propyl]-1-(2-methoxyethoxy)-3-oxo-2,3-dihydro-1H-isoindol-2-yl]methyl}pyridine-3-carbonitrile] was tested, and the inhibition at 0.1 µM (MDM2-p53 interaction) was 65%.

Compound CCC(O)(c1cc(F)c2c(c1)C(=O)N(Cc1ncc(Cl)cn1)[C@@]2(O[C@H]1CCOC1)c1ccc(Cl)cc1)C1(F)CCNCC1 (single isomer, unassigned) [Example 541] has an inhibition at 0.0003 µM (MDM2-p53 interaction; read-out: MDM2 % inhibition @0.00030) of 64% and an IC50 (SJSA-1 cells; [1]) of 0.014 µM.

CC(C)(O)c1cc(F)c2c(c1)C(=O)N([C@H](c1ccc(Cl)cn1)C(O)CO)[C@@]2(OCC1(O)CC1)c1ccc(Cl)cc1 (stereo partly drawn) [Example 331, (3R)-3-(4-Chlorophenyl)-2-[(1R)-1-(5-chloropyridin-2-yl)-2,3-dihydroxypropyl]-4-fluoro-3-[(1-hydroxycyclopropyl)methoxy]-6-(2-hydroxypropan-2-yl)-2,3-dihydro-1H-isoindol-1-one] was tested, and the “MDM2 % at stated concentration” value (MDM2-p53 interaction; at 0.030 μM) was 49%@0.030.

In the case of CCC(O)(c1cc(F)c2c(c1)C(=O)N(Cc1ncc(Cl)cn1)[C@@]2(OCC1(CO)CC1)c1ccc(Cl)cc1)c1cn(C)cn1 (single isomer, unassigned) [Example 477], the inhibition at 0.001 µM (MDM2-p53 interaction) is reported as 86% and the IC50 (SJSA-1 cells; [1]) is reported as 0.0091 µM.

In the case of CC(C)(O)c1cc(F)c2c(c1)C(=O)N(Cc1ccc(Cl)cn1)[C@@]2(OCC1(CNCCO)CC1)c1ccc(Cl)cc1 [Example 326, (3R)-3-(4-chlorophenyl)-2-[(5-chloropyridin-2-yl)methyl]-4-fluoro-3-[(1-{[(2-hydroxyethyl)amino]methyl}cyclopropyl)methoxy]-6-(2-hydroxypropan-2-yl)-2,3-dihydro-1H-isoindol-1-one], the “MDM2 % at stated concentration” value (MDM2-p53 interaction; at 0.030 μM) is reported as 50%@0.030.

CO[C@]1(c2ccc(Cl)cc2)c2c(F)cc(C(C)(O)c3cnn(C4CN(C(=O)OC(C)(C)C)C4)c3)cc2C(=O)N1Cc1ccc(Cl)cn1 (single isomer, unassigned) [Example 458] showed an inhibition at 0.01 µM (MDM2-p53 interaction; read-out: MDM2 % inhibition @0.010) of 44%.

Cn1cc(C(O)(c2cc(F)c3c(c2)C(=O)N(Cc2ccc(C#N)cn2)[C@@]3(O[C@H]2CCOC2)c2ccc(Cl)cc2)C(F)(F)F)cn1 (stereo partly drawn) [Example 371, 6-{[(1R)-1-(4-chlorophenyl)-7-fluoro-3-oxo-1-[(3S)-oxolan-3-yloxy]-5-[2,2,2-trifluoro-1-hydroxy-1-(1-methyl-1H-pyrazol-4-yl)ethyl]-2,3-dihydro-1H-isoindol-2-yl]methyl}pyridine-3-carbonitrile] showed an inhibition at 0.03 µM (MDM2-p53 interaction) of 43%.

Compound CO[C@]1(c2ccc(Cl)cc2)c2c(F)cc(C(C)(O)c3cnn(C4CN(C(=O)OC(C)(C)C)C4)c3)cc2C(=O)N1Cc1ccc(Cl)cn1 (stereo partly drawn) [Example 457, tert-Butyl 3-(4-{1-[(1R)-1-(4-chlorophenyl)-2-[(5-chloropyridin-2-yl)methyl]-7-fluoro-1-methoxy-3-oxo-2,3-dihydro-1H-isoindol-5-yl]-1-hydroxyethyl}-1H-pyrazol-1-yl)azetidine-1-carboxylate] has an inhibition at 0.3 µM (MDM2-p53 interaction; read-out: MDM2 % inhibition @0.30) of 53%.

In the case of CCC(O)(c1cc(F)c2c(c1)C(=O)N(Cc1ncc(C#N)cn1)[C@@]2(OCC1(C#N)CC1)c1ccc(Cl)cc1)c1cn(C)cn1 (stereo partly drawn) [Example 463, 2-{[(1R)-1-(4-chlorophenyl)-1-[(1-cyanocyclopropyl)methoxy]-7-fluoro-5-[1-hydroxy-1-(1-methyl-1H-imidazol-4-yl)propyl]-3-oxo-2,3-dihydro-1H-isoindol-2-yl]methyl}pyrimidine-5-carbonitrile], the inhibition at 0.1 µM (MDM2-p53 interaction) is reported as 73%.

CC(=O)N1CCC(C(C)(O)c2cc(F)c3c(c2)C(=O)N(Cc2ccc(Cl)cn2)[C@@]3(OCC2(C#N)CC2)c2ccc(Cl)cc2)CC1 (single isomer, unassigned) [Example 301] was tested, and the “MDM2 % at stated concentration” value (MDM2-p53 interaction) was 75%@0.0010.

Compound CCCC(O)(c1cc(F)c2c(c1)C(=O)N(Cc1ccc(C#N)cn1)[C@@]2(O[C@H]1CCOC1)c1ccc(Cl)cc1)c1cn(C)cn1 (stereo partly drawn) [Example 473, 6-{[(1R)-1-(4-chlorophenyl)-7-fluoro-5-[1-hydroxy-1-(1-methyl-1H-imidazol-4-yl)butyl]-3-oxo-1-[(3S)-oxolan-3-yloxy]-2,3-dihydro-1H-isoindol-2-yl]methyl}pyridine-3-carbonitrile] has an inhibition at 0.1 µM (MDM2-p53 interaction) of 44%.

CO[C@]1(c2ccc(Cl)cc2)c2ccc(C(C)(O)C(=O)NCCN(C)C)cc2C(=O)N1Cc1ccc(Cl)cn1 (single isomer, unassigned) [Example 150] was tested, and the “MDM2 % at stated concentration” value (MDM2-p53 interaction; at 0.10 μM) was 49%@0.10.

CC[C@](O)(c1cc(F)c2c(c1)C(=O)N(Cc1ncc(Cl)cn1)[C@@]2(O[C@H]1CCOC1)c1ccc(Cl)cc1)C1CCN(C)CC1 [Example 567, (3R)-3-(4-chlorophenyl)-2-[(5-chloropyrimidin-2-yl)methyl]-4-fluoro-6-[(1R)-1-hydroxy-1-(1-methylpiperidin-4-yl)propyl]-3-[(3S)-oxolan-3-yloxy]-2,3-dihydro-1H-isoindol-1-one] was tested, and the inhibition at 0.1 µM (MDM2-p53 interaction) was 57%.

CCC(O)(c1cc(F)c2c(c1)C(=O)N(Cc1ncc(C#N)cn1)[C@@]2(OCC1(F)COC1)c1ccc(Cl)cc1)c1cn(C)cn1 (stereo partly drawn) [Example 470, 2-{[(1R)-1-(4-chlorophenyl)-7-fluoro-1-[(3-fluorooxetan-3-yl)methoxy]-5-[1-hydroxy-1-(1-methyl-1H-imidazol-4-yl)propyl]-3-oxo-2,3-dihydro-1H-isoindol-2-yl]methyl}pyrimidine-5-carbonitrile] gave an inhibition at 10 µM (SN40R2 cells) of 3% and an IC50 (SJSA-1 cells; [1]) of 0.1 µM.

With Cn1cc(C(C)(O)c2cc(F)c3c(c2)C(=O)N(Cc2ccc(Cl)c[n+]2[O-])[C@@]3(OCC2(CO)CC2)c2ccc(Cl)cc2)cn1 (single isomer, unassigned) [Example 407] the “MDM2 % at stated concentration” value (MDM2-p53 interaction) was 62%@0.0010.
